The values below come from patent US20250313546A1, “NUCLEIC ACID BINDERS” (UNIVERSITY OF STRATHCLYDE, priority 2022, published 2025).

Assay [1] has as its system Enterococcus faecalis (ATCC 51299). Nature of the assay: Antibacterial MIC, broth microdilution (CLSI). Format: cell-based. The settings on record: for MIC80: Enterococcus faecalis, ATCC51299, read-out: MIC80 E. faecalis.
Assay [2] concerns Escherichia coli (ATCC 25922). Nature of the assay: Antibacterial MIC, broth microdilution (CLSI). The settings on record: Escherichia coli, ATCC25922; read-out: MIC80 E. coli. The format is cell-based. A general note: In broth dilution the organism is exposed to a series of concentrations in liquid medium.
The test system of another assay is T. vaginalis. The experiment in a line: Trichomonas resorufin assay. The format is cell-based. The conditions noted are these: for IC50: Trichomonas vaginalis, read-out: IC50 T. vaginalis.
Assay [3] deals with Staphylococcus aureus (ATCC 43300). The experiment in a line: Antibacterial MIC, broth microdilution (CLSI). The format is cell-based. The settings on record: for S. aureus Selectivity Indices, Group: SI, IC50 (μM)/MIC80 (μM), HEK293 cytotoxicity; for MIC80: Staphylococcus aureus, ATCC43300, read-out: MIC80 S. aureus.
The test system of assay [4] is Genomic double stranded DNA (salmon). Nature of the assay: Fluorescence intercalator displacement (FID) assay, SYBR-safe probe. The conditions noted are these: 20 μM compound, 30° C., lower % = stronger binding. How it is done:
(§1) The ability of compounds of the invention to bind to DNA and RNA was assessed using a fluorescence intercalator displacement assay. Genomic double stranded DNA (salmon) or PolyAU double stranded RNA is treated with probe molecule (Sybr-Safe) that increases its fluorescence upon binding to nucleic acids.
(§2) polyAU RNA (Polyadenylic acid—Polyuridylic acid sodium salt, double-stranded homopolymer, P1537, Merck) or genomic DNA (Deoxyribonucleic acid sodium salt from salmon testes, D1626, Merck) was dissolved in 1 mM pH 7.4 phosphate buffer (containing 0.27 mM potassium chloride, 13.7 mM sodium chloride) to a concentration of 1 mg/mL in, SybrSafe (SYBR® Safe DNA Gel Stain, ×10,000 in DMSO, S33102 Invitrogen) was used as supplied by the manufacturer in DMSO, and compounds of the invention were prepared as 10 mM stocks in DMSO. These stock solutions were diluted appropriately with each other and 1 mM phosphate buffer to give test solutions comprised of 20 μM compound of the invention, 12500-fold dilution of SybrSafe and 3.76 ng/mL RNA/DNA. Control solutions of RNA/DNA and SybrSafe, RNA/DNA, and SybrSafe at these concentrations were also prepared. Test and control solutions were heated to 30° C. and the fluorescence of each solution was measured using the SYBER filter setting of a StepOnePlus using melt analysis mode (StepOne Software v2.3). The reduction of fluorescence due to the binding of the compound of the invention to the RNA/DNA was calculated as a normalised percentage based on the fluorescence measured due to the control with SybrSafe and RNA/DNA as maximum and the control with only SybrSafe as minimum.
(§3) A reduction in normalised % is indicative of probe displacement and thus strong nucleic acid binding.

In assay [5] the test system is PolyAU double stranded RNA. The assay is described as above. The conditions noted are these: 20 μM compound, 30° C., lower % = stronger binding. The protocol: as §1, §2, §3
Assay [6] has as its system A. fumigatus A1160 (MFIG001). The settings on record: Aspergillus fumigatus, read-out: MIC99 A. fumigatus A1160.
A further assay relates to C. neoformans (F10025). The settings on record: Cryptococcus neoformans, read-out: MIC99 C. neoformans.
The test system of assay [7] is Candida glabrata (ACPF3309). The conditions noted are these: Nakaseomyces glabratus, read-out: MIC99 Candida glabrata.

≈ marks a conversion by molar mass, not a printed value. A value given as a limit tells only on which side of the number the result lay.

Method for C. neoformans (F10025): The Minimum Inhibitory Concentration (MIC, at 99% inhibition) of the compounds was determined using the broth microdilution method as recommended by EUCAST (EUCAST Definitive Document E.DEF 9.3.2, Method for the determination of broth dilution minimum inhibitory concentrations of antifungal agents for conidia forming moulds and EUCAST Definitive Document E.DEF 7.3.2 Method for the determination of broth dilution minimum inhibitory concentrations of antifungal agents for yeasts).

Broadly, the MIC80 is an inhibitory concentration at the 80% level, which refers to growth in some studies and to a panel of isolates in others. As usually defined, the IC50 is the concentration that gives 50% inhibition. Take `CCCCNC(=O)c1cc(NC(=O)c2cc(NC(=O)c3ccc(/C=C/c4cnc5ccccc5c4)cc3)cn2C)cn1C` [IVa5, (E)-N-butyl-1-methyl-4-(1-methyl-4-(4-(2-(quinolin-3-yl)vinyl)benzamido)-1H-pyrrole-2-carboxamido)-1H-pyrrole-2-carboxamide]: the MIC80 was below 5 µM in assay [1], above 100 µM in assay [2] and below 5 µM in assay [3]. The “E. faecalis Selectivity Indices, Group” value in assay [1] (SI, IC50 (μM)/MIC80 (μM), HEK293 cytotoxicity, Amides) is listed as “C (Group: C, 1.5 < SI <= 5)”. Moreover, the “E. faecalis Selectivity Index (SI)” value in assay [1] (SI, IC50 (μM)/MIC80 (μM), HEK293 cytotoxicity, numeric value) is 2. For the same molecule, the “T. vaginalis Selectivity Indices, Group” value in the assay on T. vaginalis (SI, IC50 (μM)/IC50 (μM), HEK293 cytotoxicity, Amides) is on record as “C (Group C: SI > 0.5)”. Besides, the “T. vaginalis Selectivity Index (SI)” value in the assay with T. vaginalis (SI, IC50 (μM)/IC50 (μM), HEK293 cytotoxicity, numeric value) is 2. For the same molecule, in the assay on T. vaginalis, the 50% inhibitory concentration (IC50) was in the range of 1 to 5 µM. Besides, the “S. aureus Selectivity Indices, Group” value in [3] (Amides) was “B (Group B: 1.4 < SI <= 3)”. Also, the “% Normalised Fluorescence with gDNA” value in assay [4] is recorded as 51%. Besides, the “% Normalised Fluorescence with polyAU RNA” value in [5] came to 12%.
With `Cn1cc(NC(=O)c2cc(NC(=O)c3ccc(/C=C/c4cnc5ccccc5c4)cc3)cn2C)cc1C(=O)NCCOCCOCCO` [IVa7, (E)-N-(2-(2-(2-hydroxyethoxy)ethoxy)ethyl)-1-methyl-4-(1-methyl-4-(4-(2-(quinolin-3-yl)vinyl)benzamido)-1H-pyrrole-2-carboxamido)-1H-pyrrole-2-carboxamide], the MIC80 was above 100 µM in [1], above 100 µM in [2] and 5 to 25 µM (≈ 3.25 to 16.3 µg/mL) in [3]. Also, in the assay on T. vaginalis, the IC50 lay in the range of 5 to 50 µM. In addition, the “% Normalised Fluorescence with gDNA” value in assay [4] is 65%. Besides, the “% Normalised Fluorescence with polyAU RNA” value in assay [5] amounted to 92%.
In general, MIC99 refers to the lowest concentration that inhibits either 99% of growth or 99% of the strains tested, depending on the study. As to `[H]/N=C(\CCNC(=O)c1cc(NC(=O)c2cc(NC(=O)c3ccc(C=Cc4ccc5nonc5c4)cc3)cn2C)cn1C)NC` [Ia3, (E)-4-(4-(2-(benzo[c][1,2,5]oxadiazol-5-yl)vinyl)benzamido)-N-(5-((3-imino-3-(methylamino)propyl)carbamoyl)-1-methyl-1H-pyrrol-3-yl)-1-methyl-1H-pyrrole-2-carboxamide], the MIC99 in [6] is below 5 µg/mL. Moreover, the MIC80 in assay [2] is above 100 µM; in assay [3], below 5 µM. The “% Normalised Fluorescence with gDNA” value in assay [4] was found to be 13%. Further, in assay [5], the “% Normalised Fluorescence with polyAU RNA” value was 38%.
Consider `C/N=C(/CCNC(=O)c1cc(NC(=O)c2cc(NC(=O)c3ccc(/C=C/c4ccc(C(F)(F)F)cc4)cc3)cn2C)cn1C)NC` [Ia5, 1-methyl-4-(1-methyl-4-(4-((E)-4-(trifluoromethyl)styryl)benzamido)-1H-pyrrole-2-carboxamido)-N—((Z)-3-(methylamino)-3-(methylimino)propyl)-1H-pyrrole-2-carboxamide], for which the MIC99 in assay [6] fell in the range of 25 to 50 µg/mL (≈ 39.5 to 78.9 µM). For the same molecule, the figures for the MIC80 in [2] and in assay [3] were above 100 µM and below 5 µM, respectively. In addition, the “% Normalised Fluorescence with gDNA” value in [4] is on record as 21%. In addition, in [5], the “% Normalised Fluorescence with polyAU RNA” value came to 12%.
The like results for `C/N=C(/CCNC(=O)c1cc(NC(=O)c2cc(NC(=O)c3ccc(/C=C/c4ccc5ccccc5c4)cc3)cn2C)cn1C)NC` [Ia7, 1-methyl-4-(1-methyl-4-(4-((E)-2-(naphthalen-2-yl)vinyl)benzamido)-1H-pyrrole-2-carboxamido)-N—((Z)-3-(methylamino)-3-(methylimino)propyl)-1H-pyrrole-2-carboxamide] were, in that order, 25 to 50 µg/mL (≈ 40.6 to 81.2 µM), above 100 µM, below 5 µM, 10% and 24%.
Consider `COc1cccc(/C=C/c2ccc(C(=O)Nc3cc(C(=O)Nc4cc(C(=O)NCCC(=N)NC(C)C)n(C)c4)n(C)c3)cc2)c1` [Ia19, (E)-N-(3-imino-3-(isopropylamino)propyl)-4-(4-(4-(3-methoxystyryl)benzamido)-1-methyl-1H-pyrrole-2-carboxamido)-1-methyl-1H-pyrrole-2-carboxamide], for which the MIC80 in assay [1] lay in the range of 5 to 25 µM (≈ 3.05 to 15.2 µg/mL); in assay [2], 25 to 100 µM (≈ 15.2 to 61 µg/mL); in [3], 5 to 25 µM (≈ 3.05 to 15.2 µg/mL). Further, the IC50 in the assay on T. vaginalis fell in the range of 5 to 50 µM. For the same molecule, the “S. aureus Selectivity Indices, Group” value in assay [3] (Alkyl Amidines and NH Pyrroles) is “B (Group B: 3 < SI <= 5)”. Also, the “% Normalised Fluorescence with gDNA” value in [4] stood at 10%. Besides, the “% Normalised Fluorescence with polyAU RNA” value in [5] worked out at 8%.
`COc1cccc(/C=C/c2ccc(C(=O)Nc3cc(C(=O)Nc4cc(C(=O)NCCC(=N)NC(C)C)n(C)c4)n(C)c3)cn2)c1` [Ia23, (E)-N-(5-((5-((3-imino-3-(isopropylamino)propyl)carbamoyl)-1-methyl-1H-pyrrol-3-yl)carbamoyl)-1-methyl-1H-pyrrol-3-yl)-6-(3-methoxystyryl)nicotinamide]: the MIC80 in [1] was above 100 µM; in assay [2] it was above 100 µM; in [3], 25 to 100 µM (≈ 15.3 to 61.1 µg/mL). Moreover, the IC50 in the assay on T. vaginalis lay in the range of 5 to 50 µM. The “% Normalised Fluorescence with gDNA” value in [4] worked out at 41%. In assay [5], the “% Normalised Fluorescence with polyAU RNA” value is listed as 25%.
With `[H]/N=C(\CCNC(=O)c1cc(NC(=O)c2cc(NC(=O)c3ccc(C=Cc4ccc5nonc5c4)cc3)cn2C)cn1C)NCCCN(C)C` [Ia46, (E)-4-(4-(2-(benzo[c][1,2,5]oxadiazol-5-yl)vinyl)benzamido)-N-(5-((3-((3-(dimethylamino)propyl)amino)-3-iminopropyl)carbamoyl)-1-methyl-1H-pyrrol-3-yl)-1-methyl-1H-pyrrole-2-carboxamide], the figures for the MIC80 in assay [1], in assay [2] and in assay [3] were above 100 µM, above 100 µM and 25 to 100 µM (≈ 16.6 to 66.5 µg/mL), respectively. Besides, in the assay with T. vaginalis, the IC50 is 5 to 50 µM. The “% Normalised Fluorescence with gDNA” value in assay [4] was 10%. In addition, the “% Normalised Fluorescence with polyAU RNA” value in assay [5] amounted to 2%.
As to `[H]/N=C(\CCNC(=O)c1cc(NC(=O)c2cc(NC(=O)c3ccc(C=Cc4ccc5nonc5c4)cc3)cn2C)cn1C)N1CCN(C)CC1` [Ib4, (E)-4-(4-(2-(benzo[c][1,2,5]oxadiazol-5-yl)vinyl)benzamido)-N-(5-((3-imino-3-(4-methylpiperazin-1-yl)propyl)carbamoyl)-1-methyl-1H-pyrrol-3-yl)-1-methyl-1H-pyrrole-2-carboxamide], the MIC99 in the assay with C. neoformans (F10025) lay in the range of 5 to 25 µg/mL (≈ 7.54 to 37.7 µM); in assay [7] it was 25 to 50 µg/mL (≈ 37.7 to 75.4 µM). Moreover, the MIC80 was below 5 µM in assay [1], above 100 µM in assay [2] and below 5 µM in assay [3]. Moreover, the “% Normalised Fluorescence with gDNA” value in assay [4] is 20%. Moreover, in [5], the “% Normalised Fluorescence with polyAU RNA” value is on record as 5%.
Turning to `CCCCCC[N+](C)(C)CCNC(=O)c1cc(NC(=O)c2cc(NC(=O)c3ccc(/C=C/c4cnc5ccccc5c4)cc3)cn2C)cn1C` [Ic5, (E)-N,N-dimethyl-N-(2-(1-methyl-4-(1-methyl-4-(4-(2-(quinolin-3-yl)vinyl)benzamido)-1H-pyrrole-2-carboxamido)-1H-pyrrole-2-carboxamido)ethyl)hexan-1-aminium], the values for the MIC99 in [6] and in assay [7] were above 50 µg/mL and 5 to 25 µg/mL, respectively. The figures for the MIC80 in [1], in assay [2] and in assay [3] were 5 to 25 µM, above 100 µM and below 5 µM, respectively. For the same molecule, the “T. vaginalis Selectivity Indices, Group” value in the assay on T. vaginalis (SI, IC50 (μM)/IC50 (μM), HEK293 cytotoxicity, Quaternary ammoniums) is given as “B (Group B: 0.8 < SI <= 1.5)”. Besides, the IC50 in the assay with T. vaginalis lay within 1 to 5 µM. Moreover, the “S. aureus Selectivity Indices, Group” value in [3] (Quaternary ammoniums) is listed as “C (Group C: 5 < SI <= 10)”.
